Source: patent publication US20030232860A1, “Medicine comprising dicyanopyridine derivative” (priority 2000, published 2003)

Test system: rat's removed bladder specimen
Experiment: Inhibition of the contraction of rat's removed bladder specimen (15 mM K+-induced contraction, organ bath)
Conditions: SD male rat bladder strips, dose giving 50% inhibition of contraction area
Description: Since the inhibitory action is blocked by a known maxi-K channel blocker charybdotoxin or iberiotoxin, it is confirmed that the effect of the compounds of the invention is based on the maxi-K channel opening effect. Thus, the pharmacological effect of the compounds of the invention was confirmed according to the following method.
<Inhibitory Effect in Construction of the Rat's Removed Bladder Specimen>
In this experiment, SD-family male rats (9-13 weeks of age) were used. The rats were killed by bleeding under ether anesthesia, and the bladders were removed. The removed bladders were immediately washed in a Kiebs-Henseleit solution (NaCl 118.4, KCl 4.7, KH2PO4 1.2, MgSO4 1.2, CaCl2 2.5, NaHCO3 25.0, glucose 11.1 [mM], aeration with 95% O2/5% CO2 mixed gas) kept at 37° C., and prepared into rectangular specimens of about 10 mm long and about 2 mm width on a Petri dish filled with the Klebs-Henseleit solution. The respective specimens were ligated at the both ends with a cotton string via a wire hook, and the one end was fixed to an FD pick-up and the other hung down vertically in an organ bath filled with the Klebs-Henseleit solution. After completion of the operation, 1.0 g of static tensile stress was given to the respective slices, which were then allowed to stand for 1.5-2 hours to stabilize. Then, a KCl solution was added to the organ bath so that the final K^+ ion concentration become 15 mM to induce the contraction. Thereafter, the specimens were further allowed to stand for about 1-2 hours to stabilize, and the test was started. The contraction of the smooth muscle was measured isometrically through the FD pick-up, and the output signal was amplified through a strain stress amplifier to continuously record a chart on a pen recorder. At the same time, the respective contraction wave forms to be analyzed were recorded on a personal computer as magnetic data through an analogue/digital signal converter, and the under-area of the contraction was calculated by analytical software. The contraction 5 minutes immediately after the start of the test was regarded as the value before administration of the drug to be tested (100% reference value). The drug to be tested was added into the bath at intervals of 30 minutes, and the contraction for 5 minutes, respectively 25 minutes after the administration, was analyzed. The drug to be tested was administered at a common ratio of 3 or 10 accumulatively. The effect of the drug to be tested was represented by the dose by which 50% inhibition was attained to the value before the administration (100% reference value). Additionally, the wave form of contraction at the highest dose of the drug was recorded, and then a maxi-K channel selective blocker, charybdotoxin or iberiotoxin, was administered so that the final concentration in the organ bath became 100 nM. Thus, the effect of the drug was observed whether it was blocked or not.

In the case of `COc1nc(N)c(C#N)c(-c2cccs2)c1C#N` [Example 1, 2-amino-6-methoxy-4-(2-thienyl)pyridine-3,5-dicarbo-nitrile], the IC50 is reported as 150 nM.

Test system: not given
Experiment: not given
Conditions: not given

Compared with `CSc1nc(N)c(C#N)c(C)c1C#N` [Example 75], `CSc1nc(N)c(C#N)c(-c2ccco2)c1C#N` [Example 84] is lower in melting point: 246 to 247 °C for the first, 229 to 230 °C for the second.

First: CSc1nc(N)c(C#N)c(-c2ccccc2)c1C#N [Example 76]
Second: COc1nc(SC)c(C#N)c(-c2ccccc2)c1C#N [Example 371]
The melting point of the first is higher: 297 °C for the first, 168 to 170 °C for the second.

First: COc1nc(N)c(C#N)c(-c2cc(F)ccc2F)c1C#N [Example 126, 2-amino-4-(2,5-difluorophenyl)-6-methoxypyridine-3,5-dicarbonitrile]
Second: COc1nc(N)c(C#N)c(-c2ccc[nH]2)c1C#N [Example 169]
The melting point of the first is higher: 201 to 202 °C for the first, 198 to 199 °C for the second.

First: CCc1c(C#N)c(N)nc(OC)c1C#N [Example 149]
Second: COc1nc(N)c(C#N)c(C2CCOC2)c1C#N (centres unmarked) [Example 163]
The melting point of the first is lower: 160 to 161 °C for the first, 205 to 206 °C for the second.

First: CCOc1nc(N)c(C#N)c(-c2ccccc2)c1C#N [Example 179]
Second: N#Cc1c(N)nc(Oc2ccccc2)c(C#N)c1-c1ccccc1 [Example 194]
The melting point of the first is higher: 233 to 234 °C for the first, 202 °C for the second.

First: N#Cc1c(N)nc(-n2ccnc2)c(C#N)c1-c1ccccc1 [Example 211]
Second: N#Cc1c(N)nc(SCc2ccccc2)c(C#N)c1-c1ccccc1 [Example 217]
The melting point of the first is higher: 256 to 258 °C for the first, 212 to 213 °C for the second.

Compared with `COc1nc(OC)c(C#N)c(-c2ccccc2)c1C#N` [Example 358], `CNc1nc(OC)c(C#N)c(-c2ccccc2)c1C#N` [Example 360] is higher in melting point: 157 to 159 °C for the first, 216 to 218 °C for the second.

First: COc1nc(N(C)C)c(C#N)c(-c2ccccc2)c1C#N [Example 361]
Second: COc1nc(NCCO)c(C#N)c(-c2ccccc2)c1C#N [Example 362, 2-[(2-hydroxyethyl)amino]-6-methoxy-4-phenylpyridine-3,5-dicarbonitrile]
The melting point of the first is higher: 179 to 180 °C for the first, 153 to 155 °C for the second.

First: COC(=O)CNc1nc(OC)c(C#N)c(-c2ccccc2)c1C#N [Example 363, methyl [(3,5-dicyano-6-methoxy-4-phenylpyridin-2-yl)amino]acetate]
Second: CCC(=O)Nc1nc(OC)c(C#N)c(-c2ccccc2F)c1C#N [Example 401, N-[3,5-dicyano-4-(2-fluorophenyl)-6-methoxypyridin-2-yl]propionamide]
The melting point of the first is lower: 140 to 141 °C for the first, 168 to 169 °C for the second.

Going from `N#Cc1c(N)nc(Cl)c(C#N)c1-c1cccs1` [Example 372] to `N#Cc1c(N)nc(Br)c(C#N)c1-c1cccs1` [Example 373], the melting point rises from 301 °C to 312 °C.

First: N#Cc1c(N)nc(OCc2ccccc2)c(C#N)c1-c1cccs1 [Example 378]
Second: N#Cc1c(N)nc(SCc2ccccc2)c(C#N)c1-c1cccs1 [Example 386]
The melting point of the first is lower: 186 to 187 °C for the first, 208 to 209 °C for the second.

First: COc1nc(NC(=O)COC(C)=O)c(C#N)c(-c2ccccc2F)c1C#N [Example 397, [3,5-dicyano-4-(2-fluorophenyl)-6-methoxypyridin-2-ylcarbamoyl]methyl acetate]
Second: COCCC(=O)Nc1nc(OC)c(C#N)c(-c2ccccc2F)c1C#N [Example 404, N-[3,5-dicyano-4-(2-fluorophenyl)-6-methoxypyridin-2-yl]-3-methoxypropionamide]
The melting point of the first is higher: 151 to 153 °C for the first, 115 to 116 °C for the second.

First: COc1nc(NC(=O)COc2ccccc2)c(C#N)c(-c2ccccc2F)c1C#N [Example 398, N-[3,5-dicyano-4-(2-fluorophenyl)-6-methoxypyridin-2-yl]-2-phenoxyacetamide]
Second: COc1nc(NC(=O)COCc2ccccc2)c(C#N)c(-c2ccccc2F)c1C#N [Example 399, 2-benzyloxy-N-[3,5-dicyano-4-(2-fluorophenyl)-6-methoxypyridin-2-yl]acetamide]
The melting point of the first is higher: 205 to 206 °C for the first, 164 to 166 °C for the second.

Compared with `COc1nc(NC(=O)CCc2ccccc2)c(C#N)c(-c2ccccc2F)c1C#N` [Example 402, N-[3,5-dicyano-4-(2-fluorophenyl)-6-methoxypyridin-2-yl]-3-phenylpropionamide], `COc1nc(NC(=O)Cc2ccccc2)c(C#N)c(-c2ccccc2F)c1C#N` [Example 416, N-[3,5-dicyano-4-(2-fluorophenyl)-6-methoxypyridin-2-yl]-2-phenylacetamide] is higher in melting point: 183 to 184 °C for the first, 206 to 208 °C for the second.

First: COc1nc(NC(=O)C(C)C)c(C#N)c(-c2ccccc2F)c1C#N [Example 405, N-[3,5-dicyano-4-(2-fluorophenyl)-6-methoxypyridin-2-yl]isobutyramide]
Second: COc1nc(NC(=O)C(C)(C)C)c(C#N)c(-c2ccccc2F)c1C#N [Example 406, N-[3,5-dicyano-4-(2-fluorophenyl)-6-methoxypyridin-2-yl]-2,2-dimethylpropio namide]
The melting point of the first is higher: 193 to 194 °C for the first, 162 to 164 °C for the second.

`CCCCCC(=O)Nc1nc(OC)c(C#N)c(-c2ccccc2F)c1C#N` [Example 407, N-[3,5-dicyano-4-(2-fluorophenyl)-6-methoxypyridin-2-yl]hexanamide] and `COc1nc(NC(=O)NCCO)c(C#N)c(-c2ccccc2F)c1C#N` [Example 420, 1-[3,5-dicyano-4-(2-fluorophenyl)-6-methoxypyridin-2-yl]-3-(2-hydroxyethyl)ur ea] cannot be ordered by melting point: 139 to 141 °C for the first, 140 to 144 °C for the second.

Compared with `COc1nc(NC(=O)c2ccc3ccccc3c2)c(C#N)c(-c2ccccc2F)c1C#N` [Example 411, N-[3,5-dicyano-4-(2-fluorophenyl)-6-methoxypyridin-2-yl]naphthalene-2-carbo xamide], `COc1nc(NC(=O)c2ccccn2)c(C#N)c(-c2ccccc2F)c1C#N` [Example 412, N-[3,5-dicyano-4-(2-fluorophenyl)-6-methoxypyridin-2-yl]pyridine-2-carboxamide] is lower in melting point: 227 to 230 °C for the first, 219 to 220 °C for the second.

First: COc1nc(NC(=O)c2cccs2)c(C#N)c(-c2ccccc2F)c1C#N [Example 414, N-[3,5-dicyano-4-(2-fluorophenyl)-6-methoxypyridin-2-yl]thiophene-2-carboxamide]
Second: COc1nc(NC(=O)c2ccco2)c(C#N)c(-c2ccccc2F)c1C#N [Example 415, N-[3,5-dicyano-4-(2-fluorophenyl)-6-methoxypyridin-2-yl]furan-2-carboxamide]
The melting point of the first is lower: 208 to 209 °C for the first, 222 to 223 °C for the second.

First: N#Cc1cc(C#N)c(Oc2ccccc2)nc1N [Example 426]
Second: N#Cc1c(N)nc(O)c(C#N)c1Cc1ccccc1 [Example 434]
The melting point of the first is lower: 235 to 237 °C for the first, 314 to 315 °C for the second.

First: N#Cc1c(N)nc(OCc2cccnc2)c(C#N)c1Cc1ccccc1 [Example 436, 2-amino-4-benzyl-6-(pyridin-3-ylmethoxy)pyridine-3,5-dicarbonitrile]
Second: N#Cc1c(N)nc(SCc2cccnc2)c(C#N)c1Cc1ccccc1 [Example 438, 2-amino-4-benzyl-6-[(pyridin-3-ylmethyl)sulfanyl]pyridine-3,5-dicarbonitrile]
The melting point of the first is lower: 204 to 205 °C for the first, 259 to 260 °C for the second.

`N#Cc1c(N)nc(SCc2ccccc2)c(C#N)c1Cc1ccccc1` [Example 437] gave a melting point of 188 to 189 °C.

In the case of `COc1nc(N)c(C#N)c(-c2c[nH]c3ccccc23)c1C#N` [Example 170], the melting point is reported as over 300 °C.
`N#Cc1c(N)nc(Br)c(C#N)c1-c1ccccc1` [Example 178] gave a melting point of over 300 °C.
